Laboratory results reported in article PMC3956872 (PLoS ONE, 2014).

These compounds were tested against T1, TcAAAP069 (Trypanosoma cruzi, UniProt Q4DAV2) (assay: cell-based). Conditions: read-out: % inhibition at 10 mM.
T1 construct: gene Tc00.1047053504069.120; full-length gene in pTREXL, overexpressed in T. cruzi epimastigotes (also p416/pDR196 in S. cerevisiae MG266 gap1 put4); about 10 transmembrane spans; allele TcAAAP229 has a 62-residue N-terminal extension
T1 sequence (Q4DAV2 entry or part of it): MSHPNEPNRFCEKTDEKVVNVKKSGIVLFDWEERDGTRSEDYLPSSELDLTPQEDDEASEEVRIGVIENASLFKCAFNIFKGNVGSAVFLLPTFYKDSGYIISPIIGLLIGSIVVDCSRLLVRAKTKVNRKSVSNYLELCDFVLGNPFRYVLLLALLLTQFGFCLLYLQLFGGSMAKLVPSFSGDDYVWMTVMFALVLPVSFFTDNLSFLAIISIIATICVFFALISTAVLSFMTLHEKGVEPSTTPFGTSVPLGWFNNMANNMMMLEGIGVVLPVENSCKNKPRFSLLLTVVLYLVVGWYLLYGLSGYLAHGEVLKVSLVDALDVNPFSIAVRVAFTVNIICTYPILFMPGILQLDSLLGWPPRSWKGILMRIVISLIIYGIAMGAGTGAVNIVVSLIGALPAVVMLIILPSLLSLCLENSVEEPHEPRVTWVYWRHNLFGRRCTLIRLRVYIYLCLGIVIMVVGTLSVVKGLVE

SMILES	inhibition at 10000 µM [%]
O=C(O)[C@@H]1CSCN1 [L-thiazolidine-4-carboxylic acid]	44.2
O=C(O)[C@H]1CCCN1 [D-proline]	76.3
O=C(O)[C@@H]1C[C@@H](O)CN1 [hydroxyproline]	91.8
